“Also recorded” adds a separate entry of the source.

Here are results for four compounds from patent publication US8029814B2, “Male produced pheromone in Tetropium fuscum (F.) and Tetropium cinnamopterum (kirby) (coleoptera: cerambycidae)” (Her Majesty the Queen in Right of Canada as represented by …, priority 2007, dated 2011).

For one test, the system named is T. fuscum antennae. Kind of test: Electroantennogram (EAG) antennal stimulation. On the set-up: species or system Tetropium fuscum. The note with it: EAG puffs ca. 30 ng source concentration. As to the method: (§1) Extracts ([…] in hexane) and synthetics (30 ng fuscumol) were tested for antennal stimulation of T. fuscum and T. cinnamopterum males and females using an electroantennogram (EAG) system and EAG/GC-EAD signal recording (IDAC-232) and analysis software v.2.6 (SYNTECH, The Netherlands). Antennae from males and females were excised close to the head and used intact with SPECTRA-60™ gel (electrode gel) (Parker, USA) for electrical contact.
(§2) Extracts (ca.1 male equivalent in hexane) and synthetics (30 ng fuscumol) were tested for antennal stimulation of T. fuscum and T. cinnamopterum males and females using an electroantennogram (EAG) system and EAG/GC-EAD signal recording (IDAC-232) and analysis software v.2.6 (SYNTECH, The Netherlands). Antennae from males and females were excised close to the head and used intact with Spectra©-60 gel (Parker, USA) for electrical contact.

The test system of test [1] is T. cinnamopterum antennae. Kind of test: Electroantennogram (EAG) antennal stimulation. Set-up: species or system Tetropium cinnamopterum. The note with it: EAG puffs ca. 30 ng source concentration. On the procedure: as §1, §2
The test system of test [2] is T. fuscum. Kind of test: Field trapping, Colossus traps, McNabs Island, Halifax, 2006. The class given is in vivo, Tetropium fuscum. The note with it: female and male T. fuscum; compared with host volatiles alone or unbaited traps; 8-week trapping. From the text:
(§3) FIG. 3. Mean number (+SE) of male and female T. fuscum (a) and T. cinnamopterum (b) captured in COLOSSUS TRAPS™ (insect traps) baited with synthetic pheromone candidate (P), host volatile lures (HV), P plus host volatiles (P+HV), or un-baited traps, over the entire 8-week trapping period. […] Data for T. fuscum males and females and T. cinnamopterum females were transformed by log (y+1); data for the catch of T. cinnamopterum males were transformed by square root.
(§4) The synthetic pheromone, alone and in combination with host volatile attractants, was tested in a field experiment on McNabs Island, Halifax, Nova Scotia, from 5 Jul. to 29 Aug. 2006, using COLOSSUS TRAPS™ (insect traps) (PheroTech Inc. Delta, British Columbia) (Sweeney et al. 2006)^4. Unbaited traps and traps baited with host volatiles alone served as controls, for a total of four treatments. Treatments were replicated 15 times in a randomized complete block design with 30 m between traps and blocks. Each trap was suspended from a rope tied between two conifers separated by at least 2 m, with the collecting bucket 10-20 cm above the ground. […] Pheromone was dispensed at ca. initially 800 μg/d dropping to 50 μg/d over a 4 week period (determined by weight loss at 23° C.) from a polymerase chain reaction (PCR) sample tube (Axygen Scientific Inc., CA) (0.2-mL thick) with a 1 mm diam. hole drilled in the cap. […]

For the next test, the system named is T. cinnamopterum. The test is described as above. Type of test: in vivo, Tetropium cinnamopterum.
Source text: as §3, §4

In test [3] the test system is T. castaneum. Kind of test: Field trapping of fuscumol enantiomers, APT Intercept traps, Bialowieza, Poland, 2007. The class given is in vivo, Tetropium castaneum. The note with it: in the presence of host volatiles and ethanol. The source says: (§5) FIG. 4. Mean catch of a. Tetropium fuscum and b. T. castaneum in APT INTERCEPT TRAPS™ (insect traps) baited with synthetic fuscumol (pure S—, pure R—, or racemic) alone and combined with host volatile lures (SB=spruce blend, a blend of monoterpenes in an ultra high release rate (UHR) lure; E=ethanol in an UHR lure) in Bialowieza, Poland in 2007.
Trapping experiments were run in 2007 in Halifax, NS, and Bialowieża, Poland to test the response of Tetropium species to fuscumol, a sex pheromone emitted by male Tetropium fuscum (F.) and male T. cinnamopterum. […] Male T. fuscum emit primarily S-fuscumol so we hypothesized that a synthetic lure of pure S-fuscumol would be more attractive than pure R-fuscumol, and possibly more attractive than racemic fuscumol, especially if R-fuscumol was the major pheromone component of a sympatric sibling species such as T. castaneum. The ultimate objective was to determine if we could improve the efficacy of the lure for use in applications for survey and control of T. fuscum. Conducting the experiment in Poland allowed us to test the response of a different population of T. fuscum from that in Halifax and also to determine the attraction of the pheromone lures to another potentially invasive species, T. castaneum. […]

In test [4] the test system is T. castaneum. Kind of test: Trapping with low, medium or high release of racemic fuscumol or fuscumate plus SB and E lures (FIG. 13). The class given is in vivo, Tetropium castaneum. As to conditions: added to spruce volatile (SB) and ethanol (E) lures. On the procedure: FIG. 13 Mean catch of T. castaneum in traps baited with low (1 mg/d), medium (4 mg/d) or high (32 mg/d) of racemic fuscumol plus spruce volatile (SB) and ethanol (E) lures.

Test [5] relates to T. fuscum. Kind of test: Field trapping of fuscumol enantiomers, APT Intercept traps, Bialowieza, Poland, 2007. The class given is in vivo, Tetropium fuscum.
Source text: as §5
Trapping experiments were run in 2007 in Halifax, NS, and Bialowieża, Poland to test the response of Tetropium species to fuscumol, a sex pheromone emitted by male Tetropium fuscum (F.) and male T. cinnamopterum. […] Male T. fuscum emit primarily S-fuscumol so we hypothesized that a synthetic lure of pure S-fuscumol would be more attractive than pure R-fuscumol, and possibly more attractive than racemic fuscumol, especially if R-fuscumol was the major pheromone component of a sympatric sibling species such as T. castaneum. The ultimate objective was to determine if we could improve the efficacy of the lure for use in applications for survey and control of T. fuscum. Conducting the experiment in Poland allowed us to test the response of a different population of T. fuscum from that in Halifax and also to determine the attraction of the pheromone lures to another potentially invasive species, T. castaneum.
There were eight different lure treatments: S-fuscumol; R-fuscumol; racemic fuscumol; S-fuscumol+UHR (ultra high release rate) spruce blend lure+UHR ethanol lure; R-fuscumol+UHR spruce blend lure+UHR ethanol lure; racemic fuscumol+UHR spruce blend lure+UHR ethanol lure; UHR spruce blend lure+UHR ethanol lure; and unbaited controls.
On McNabs Island near Halifax, NS, COLOSSUS TRAPS™ (insect traps) were used with 15 replicates per treatment and in Bialowieża, APT (Advanced Pheromone Technologies) INTERCEPT TRAPS™ (insect traps) were used with 9 replicates per treatment. The treatments were laid out in randomized complete block designs with 30 m spacing between traps. Traps were out from 15 May to 27 Jun. 2007 on McNabs Island and from 30 Apr. to 25 Jun. 2007 in Bialowieża. […]

Test [6] concerns T. fuscum. Kind of test: Trapping with low, medium or high release of racemic fuscumol or fuscumate plus SB and E lures (FIG. 14). The note with it: added to spruce volatile (SB) and ethanol (E) lures. Type of test: in vivo, Tetropium fuscum. On the procedure: FIG. 14 Mean catch of T. fuscum in traps baited with low (1 mg/d), medium (4 mg/d) or high (32 mg/d) of racemic fuscumol plus spruce volatile (SB) and ethanol (E) lures.

On to `CC(C)=CCC/C(C)=C/CCC(C)O` (racemic) [racemic fuscumol, (E)-6,10-dimethyl-5,9-undecadien-2-ol], for which the “antennal response in females relative to males” value (in the test with T. fuscum antennae; in test [1]) was 2-3 times throughout. The “antennal response (EAG)” value in the test on T. fuscum antennae (females, n=5) is given as 6.05 ± 0.3 mV; in test [1] (females, n=5), 1.7 ± 0.2 mV. The “trap catch compared among lure treatments” value in the test with T. fuscum [2] was “did not differ from that in unbaited traps”. Moreover, in the test with T. cinnamopterum (T. cinnamopterum, fuscumol alone), the “trap catch compared with unbaited traps” value is reported as “did not differ from that in unbaited traps”. For the same compound, in the test with T. cinnamopterum (males), the “response of male T. cinnamopterum” value is reported as “Lack of response”. In addition, in the test with T. castaneum [3], the “attraction of T. castaneum” value was “attracted”. In addition, the “catch compared to SB+E” value in the test on T. castaneum [4] is recorded as “significantly increased catch”.
`CC(C)=CCC/C(C)=C/CC[C@@H](C)O` [R-fuscumol]: the “attraction of T. fuscum to S-fuscumol in the presence of R-fuscumol” value in the test with T. fuscum [5] (racemic versus S-fuscumol) is reported as “not reduced”.
On to `CC(C)=CCC/C(C)=C/CC[C@H](C)O` [S-fuscumol, (2S, 5E)-6,10-dimethyl-5,9-undecadien-2-ol], for which, in the test with T. fuscum [5] (without host volatile lures), the “attractiveness compared with R-fuscumol or an unbaited trap” value is “significantly more attractive” and the “mean catch compared with racemic fuscumol” value is on record as “did not differ significantly”. Moreover, the “attraction of T. castaneum” value with T. castaneum [3] is given as “attracted”.
In the case of `CC(=O)OC/C=C(\C)CCC=C(C)C` [fuscumate, geranyl acetate], the “catch compared to SB+E” value with T. castaneum [4] and in the test on T. fuscum [6] was “did not boost catch; also recorded: no effect on attraction” throughout.
